Results: patent publication US20220088144A1, “SGLT-2 INHIBITORS OR IL-1R ANTAGONISTS FOR REDUCTION OF HYPOGLYCAEMIA AFTER BARIATRIC SURGERY” (UNIVERSITÄTSSPITAL BASEL, priority 2019, published 2022)

Tested on: patients after bariatric surgery with post-prandial hypoglycaemia
Test: Liquid mixed-meal test after single dose: plasma glucose and glucose-requiring hypoglycaemic events
Assay type: in vivo, human
Conditions: for number of events (hypoglycemia requiring glucose rescue), estimate vs placebo: FIG. 5b, generalized linear additive mixed effect model; for glucose, estimate vs placebo: FIG. 5c, linear mixed effect model; for severity of hypoglycemic events / events requiring rescue glucose administration: pre-treatment vs placebo (7 of 12 patients on placebo), p=0.037; for glucose-requiring hypoglycaemic events (%): single dose before mixed meal, placebo 61.5%
Procedure: This study is a placebo controlled, double-blind, randomized, cross-over proof-of-concept study. The study consists of a screening visit and three study dates that need to have a minimum interval between the dates of four days and maximum of two weeks. Ideally, all three study dates are performed within 14 days allowing the usage of one single flash glucose monitoring system sensor (Freestyle Libre®, Abbott) for the entire period. The screening visit is about 90 min. Each study day lasts 6.5 hours and consists of the same schedule. If the subject agrees to use a glucose flash monitoring system, the sensor is installed the afternoon before study day 1 and the subject is instructed in the use of the system.
The 12 subjects were randomly assigned into six groups consisting of two subjects receiving study medication in a double-blind, crossed-over manner as outlined in FIG. 2. Patients need to be sober at least eight hours before ingestion of mixed-meal. To ensure that fasting period is not too long, patients receive a small late evening meal consisting of 4 DarVida Natural Crackers as well as 3 Sinergy® drops (see Appendix for specific contents) or are alternatively pleased to have their dinner at around 10 pm. Treatment consists of a single subcutaneous injection of 100 mg Anakinra (Kineret®) or matched placebo three hours before ingestion of the mixed-meal and of a single oral tablet of 10 mg of empagliflozin (Jardiance®) or matched placebo two hours before mixed-meal at each study day. Patients were randomised to receive in different sequences either (1) anakinra and an oral placebo to empagliflozin, (2) empagliflozin and a subcutaneous placebo (0.67 ml 0.9% saline) to anakinra or (3) double placebo. Participants, investigators and study nurses were blinded to the study drug.
Between the study drug application questionnaires concerning dumping symptoms were answered. Regular measurement of vital parameters, blood samples and hypoglycaemia assessments were performed as outlined in FIG. 1. After ingestion of the liquid mixed-meal subjects had to rest in supine position (at least 45°). One subject was not able to ingest the full specified liquid mixed meal (carbohydrate load of 40 g instead of 60 g) on the first study day and thereafter received the same portion of liquid mixed meal on subsequent study days.
In case of symptomatic hypoglycaemia before the prespecified next laboratory control immediate glucose measurements with Freestyle Libre® and POCT respectively were performed and in case of hypoglycemic values (<3.0 mmol/l) laboratory samples were drawn and glucose (10 g) was given intravenously. Samples were named according to the exact timepoint and the following pre-specified samples were taken according to the study schedule. If patients were not symptomatic glucose (10 g) was given intravenously only in case of POCT glucose values below 2.5 mmol/l.
Blood glucose measurements regularly took place and an inserted catheter in case of hypoglycaemia was adjusted at the beginning of each study date. In case of a symptomatic decrease of blood glucose levels in symptomatic patients below 2.5 mmol/l, counter-regulatory actions (e.g. 100 ml of 10% glucose) were initiated after taking the blood sample panel.
The primary outcome in this study is the change of post-prandial hypoglycaemia after treatment with empagliflozin (Jardiance®) or anakinra (Kineret®) compared to placebo. This was assessed by blood glucose measurements (capillary POCT measurements and plasma glucose) as well as clinical scoring systems (Edinburgh Hypoglycaemia Scale (Deary et al. Diabetologia 1993; 36(8): 771-7), Mixed-Meal-Test (Wiesli et al. Eur J Endocrinol 2005; 152(4): 605-10.) Stanford sleepiness scale).
At each study day the same schedule took place. […]

anakinra: CAS NO 143090-92-0; recombinant, non-glycosylated form of the human interleukin-1 receptor antagonist (IL-1 Ra), 153 amino acids
number of events (hypoglycemia requiring glucose rescue), estimate vs placebo: −2.882
glucose, estimate vs placebo: 0.133
severity of hypoglycemic events / events requiring rescue glucose administration: significantly reduced the severity of hypoglycemic events with only two events requiring rescue glucose administration
glucose-requiring hypoglycaemic events (%): 16.6%
changes of the glucose curve within the first 90 minutes (vs placebo): did not result in significant changes

OC[C@H]1O[C@@H](c2ccc(Cl)c(Cc3ccc(O[C@H]4CCOC4)cc3)c2)[C@H](O)[C@@H](O)[C@@H]1O [empagliflozin]
glycaemia 30 minutes after ingestion of the mixed meal (30 min, 10 mg empagliflozin, the other value is placebo): 10.1 mmol/L
glycaemia 60 minutes after ingestion of the mixed meal (60 min, 10 mg empagliflozin, the other value is placebo): 6.9 mmol/L
glycaemia 90 minutes after ingestion of the mixed meal (90 min, 10 mg empagliflozin, the other value is placebo): 3.5
number of events (hypoglycemia requiring glucose rescue), estimate vs placebo: −2.882
glucose, estimate vs placebo: −0.472
severity of hypoglycemic events / events requiring rescue glucose administration: significantly reduced the severity of hypoglycemic events with only two events requiring rescue glucose administration
glucose-requiring hypoglycaemic events (%): 16.6%
peak postprandial glucose levels (vs placebo): reduced
